In ChEMBL document CHEMBL5260810, “Inhibition of bromodomain-containing protein 9 for the prevention of epigenetically-defined drug resistance” (Bioorg Med Chem Lett, 2017):
Calls of active or inactive are those of the source. The rule behind the calls is not given here.

Tests used:
[1] = molecular target: T1, Bromodomain-containing protein 9 (Homo sapiens) (UniProt Q9H8M2); test: Inhibition of BRD9 in human PC-9 cells assessed as reduction in ALDH1A1 gene expression at 2 uM preincubated with erlotinib for 8 days followed by compound addition and measured after 24 hrs by RNA sequencing analysis; type: cell-based
T1 sequence (whole entry): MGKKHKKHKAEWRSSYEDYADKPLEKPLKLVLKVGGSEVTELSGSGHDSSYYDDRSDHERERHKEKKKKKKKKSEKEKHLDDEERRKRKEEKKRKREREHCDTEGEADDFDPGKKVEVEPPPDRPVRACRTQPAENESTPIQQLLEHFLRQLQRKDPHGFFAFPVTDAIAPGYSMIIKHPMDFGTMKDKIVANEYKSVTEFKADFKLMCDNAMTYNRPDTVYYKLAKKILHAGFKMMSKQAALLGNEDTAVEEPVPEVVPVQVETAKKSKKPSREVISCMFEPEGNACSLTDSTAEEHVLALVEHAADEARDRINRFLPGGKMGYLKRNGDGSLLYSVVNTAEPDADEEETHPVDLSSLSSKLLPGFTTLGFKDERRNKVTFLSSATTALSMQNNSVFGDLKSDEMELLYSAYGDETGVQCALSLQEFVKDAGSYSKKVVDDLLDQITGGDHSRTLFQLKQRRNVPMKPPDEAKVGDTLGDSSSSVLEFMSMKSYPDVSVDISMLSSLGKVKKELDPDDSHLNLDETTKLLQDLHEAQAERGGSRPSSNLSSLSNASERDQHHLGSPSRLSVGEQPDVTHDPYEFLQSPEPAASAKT

A2058 = test: Antiproliferative activity against human A2058 cells assessed as reduction in colony formation upto 20 uM supplemented with fresh medium containing compound every 3 days for 9 days by MTT staining based clonogenic assay; type: functional, cell-based; conditions: time 9.0 day
THP-1 = test: Cytotoxicity against human THP-1 cells measured after 8 days; type: functional, cell-based; conditions: THP-1, 192 h
BT-474 = test: Antiproliferative activity against human BT-474 cells assessed as reduction in colony formation up to 20 uM supplemented with fresh medium containing compound every 3 days for 9 days by MTT staining based clonogenic assay; type: functional, cell-based; conditions: time 9.0 day
HCC1954 = test: Antiproliferative activity against human HCC1954 cells assessed as reduction in colony formation upto 20 uM supplemented with fresh medium containing compound every 3 days for 9 days by MTT staining based clonogenic assay; type: functional, cell-based; conditions: time 9.0 day
[2] = Cytotoxicity against human Hs 839.T cells measured after 3 days; type: functional, cell-based; conditions: 72 h
SNU-449 = test: Cytotoxicity against human SNU-449 cells measured after 3 days; type: functional, cell-based; conditions: SNU-449, 72 h
SUM-159-PT = test: Cytotoxicity against human SUM159PT cells measured after 3 days; type: functional, cell-based; conditions: 72 h
MDA-MB-415 = test: Cytotoxicity against human MDA-MB-415 cells measured after 8 days; type: functional, cell-based; conditions: MDA-MB-415, 192 h
HepG2 = test: Cytotoxicity against human HepG2 cells measured after 3 days; type: functional, cell-based; conditions: HepG2, 72 h
OV-90 = test: Cytotoxicity against human OV-90 cells measured after 3 days; type: functional, cell-based; conditions: OV-90, 72 h
[3] = Cytotoxicity against human Li-7 cells measured after 3 days; type: functional, cell-based; conditions: Li-7, 72 h
ACHN = test: Cytotoxicity against human ACHN cells measured after 3 days; type: functional, cell-based; conditions: 72 h
SW1573 = test: Cytotoxicity against human SW1573 cells measured after 3 days; type: functional, cell-based; conditions: SW1573, 72 h
[4] = Cytotoxicity against human OV56 cells measured after 3 days; type: functional, cell-based; conditions: OV56, 72 h
[5] = Cytotoxicity against human RKN cells measured after 3 days; type: functional, cell-based; conditions: 72 h
PC-9 = test: Cytotoxicity against human PC-9 cells assessed as reduction in drug tolerant population at 2 uM supplemented with fresh medium containing compound every 3 days for 9 days in presence of erlotinib by Beckman Coulter counting method relative to control; type: functional; design: scale not given: the % may be the effect or the level left; conditions: time 9 day
MCF7 = test: Cytotoxicity against human MCF-7-SER cells measured after 8 days; type: functional, cell-based; conditions: MCF7, 192 h
[6] = Cytotoxicity against human VP229 cells measured after 3 days; type: functional, cell-based; conditions: VP229, 72 h
[7] = Cytotoxicity against human CoCM-1 cells measured after 3 days; type: functional, cell-based; conditions: CoCM-1, 72 h
TMD8 = test: Cytotoxicity against human TMD8 cells measured after 3 days; type: functional, cell-based; conditions: TMD8, 72 h
TERT-RPE1 = test: Cytotoxicity against hTERT-RPE1 cells measured after 8 days; type: functional, cell-based; conditions: Homo sapiens, RPE-1, 192 h
JIYOYE = test: Cytotoxicity against human JIYOYE cells measured after 3 days; type: functional, cell-based; conditions: 72 h
RMG-I = test: Cytotoxicity against human RMG-I cells measured after 3 days; type: functional, cell-based; conditions: 72 h
[8] = Cytotoxicity against human NCE-G 124 cells measured after 3 days; type: functional, cell-based; conditions: NCE-G 124, 72 h
[9] = Cytotoxicity against human JHH-6 cells measured after 3 days; type: functional, cell-based; conditions: JHH-6, 72 h
Calu-1 = test: Cytotoxicity against human Calu-1 cells after 8 days; type: functional, cell-based; conditions: Calu-1, 192 h
EKVX = test: Cytotoxicity against human EKVX cells after 8 days; type: functional, cell-based; conditions: 192 h
MC116 = test: Cytotoxicity against human MC116 cells measured after 3 days; type: functional, cell-based; conditions: MC116, 72 h
[10] = Cytotoxicity against human PL-21 cells measured after 3 days; type: functional, cell-based; conditions: PL-21, 72 h
[11] = molecular target: T1, Bromodomain-containing protein 9 (Homo sapiens); test: Binding affinity to BRD9 in human PC-9 cell lysate assessed as increase in thermal stabilization at 2 uM at 44 to 50 degreeC measured after 30 mins by CETSA; type: subcellular
[12] = Cytotoxicity against human ONCO-DG-1 cells measured after 3 days; type: functional, cell-based; conditions: ONCO-DG-1, 72 h
SW982 = test: Cytotoxicity against human SW982 cells measured after 3 days; type: functional, cell-based; conditions: SW982, 72 h
JJN-3 = test: Cytotoxicity against human JJN-3 cells measured after 3 days; type: functional, cell-based; conditions: JJN-3, 72 h
SR = test: Cytotoxicity against human SR cells measured after 3 days; type: functional, cell-based; conditions: 72 h
NCI-H520 = test: Cytotoxicity against human NCI-H520 cells measured after 3 days; type: functional, cell-based; conditions: NCI-H520, 72 h
HCC1395 = test: Cytotoxicity against human HCC1395 cells measured after 8 days; type: functional, cell-based; conditions: HCC1395, 192 h
NCI-H1944 = test: Cytotoxicity against human NCI-H1944 cells measured after 3 days; type: functional, cell-based; conditions: NCI-H1944, 72 h
[13] = Cytotoxicity against human NCI-H2073 cells measured after 8 days; type: functional, cell-based; conditions: NCI-H2073, 192 h
WSUDLCL2 = test: Cytotoxicity against human WSUDLCL2 cells measured after 3 days; type: functional, cell-based; conditions: WSUDLCL2, 72 h
[14] = Cytotoxicity against human JHH-4 cells measured after 3 days; type: functional, cell-based; conditions: JHH-4, 72 h
ZR-75-1 = test: Cytotoxicity against human ZR-75-1 cells measured after 8 days; type: functional, cell-based; conditions: ZR-75-1, 192 h
SUM149PT = test: Cytotoxicity against human SUM149PT cells measured after 3 days; type: functional, cell-based; conditions: 72 h
[15] = Cytotoxicity against human MOR cells measured after 3 days; type: functional, cell-based; conditions: 72 h
[16] = Cytotoxicity against human NCE-G 121 cells measured after 3 days; type: functional, cell-based; conditions: NCE-G 121, 72 h

With C/C=C/Cn1cc(-c2ccc(C(=O)N3CCOCC3)cc2)c2cc[nH]c2c1=O the inhibition [1] was “Active”.
With C/C=C/Cn1cc(-c2ccc(C(C)(C)O)cc2OC)c2cc[nH]c2c1=O the Activity (A2058) was “inactive”, the IC50 (THP-1) was 16.2 µM and the Activity (BT-474) was “inactive”. The Activity (HCC1954) was “Active”.
With C/C=C/Cn1cc(-c2cc(OC)c(C(=O)N3CCOCC3)cc2OC)c2cc(C)[nH]c2c1=O the IC50 [2] was 5 µM, the IC50 (SNU-449) was 5 µM and the IC50 (SUM-159-PT) was 5 µM. The IC50 (MDA-MB-415) was 2 µM, the IC50 (HepG2) was 5 µM and the IC50 (OV-90) was 5 µM. It also gave an IC50 [3] of 5 µM, an IC50 (ACHN) of 5 µM and an IC50 (SW1573) of 5 µM. For the same compound, the IC50 [4] was 5 µM, the IC50 [5] was 5 µM and the Activity (PC-9) was >60%. The IC50 (MCF7) was 2 µM, the IC50 [6] was 5 µM and the IC50 [7] was 5 µM. The IC50 (TMD8) was 5 µM, the IC50 (TERT-RPE1) was 2 µM and the IC50 (JIYOYE) was 5 µM. The IC50 (RMG-I) was 5 µM, the IC50 [8] was 5 µM and the IC50 [9] was 5 µM. For the same compound, the IC50 (Calu-1) was 2 µM, the IC50 (EKVX) was 2 µM and the IC50 (MC116) was 5 µM. For the same compound, the IC50 [10] was 5 µM, the Activity [11] was “Active” and the IC50 [12] was 5 µM. It also gave an IC50 (SW982) of 5 µM, an IC50 (JJN-3) of 5 µM and an IC50 (SR) of 5 µM. It also gave an IC50 (NCI-H520) of 5 µM, an IC50 (HCC1395) of 2 µM and an IC50 (NCI-H1944) of 5 µM. It also gave an IC50 [13] of 2 µM, an IC50 (WSUDLCL2) of 5 µM and an IC50 [14] of 5 µM. It also gave an IC50 (ZR-75-1) of 2 µM, an IC50 (SUM149PT) of 5 µM and an IC50 [15] of 5 µM. It also gave an IC50 [16] of 5 µM.
